Values joined by “and” are separate entries in the source; they are usually repeats but may differ in a detail not shown here. Equal entries are not always repeated.
Key:
PHKg2 = molecular target: T1, PHKg2 (Homo sapiens, UniProt P15735); experiment: Kinase selectivity profile assay; format: biochemical; settings: 500 nM; relative to DMSO; read-out: Residual enzymatic activity
T1 construct: purchased Reaction Biology Corporation
Procedure: (§1) The activity of MT-SYK-03 against cSrc kinase and selectivity profile towards other 341 kinases was determined at Reaction Biology Corporation (Malvern, PA, USA) using the standard kinase assay protocol. […]; unbound phosphate was removed by extensive washing of filters in phosphoric acid. Kinase activity data was expressed as the percent remaining kinase activity in test samples compared to vehicle (dimethyl sulfoxide) reactions based on the radioactivity of reaction products (see Table S2). Experiment was replicated twice.

PKCb1 = molecular target: T2, PKCb1 (Homo sapiens, UniProt P05771); experiment: Kinase selectivity profile assay; format: biochemical; settings: 500 nM; relative to DMSO; read-out: Residual enzymatic activity
T2 construct: purchased Reaction Biology Corporation
T2 sequence (P05771 whole entry): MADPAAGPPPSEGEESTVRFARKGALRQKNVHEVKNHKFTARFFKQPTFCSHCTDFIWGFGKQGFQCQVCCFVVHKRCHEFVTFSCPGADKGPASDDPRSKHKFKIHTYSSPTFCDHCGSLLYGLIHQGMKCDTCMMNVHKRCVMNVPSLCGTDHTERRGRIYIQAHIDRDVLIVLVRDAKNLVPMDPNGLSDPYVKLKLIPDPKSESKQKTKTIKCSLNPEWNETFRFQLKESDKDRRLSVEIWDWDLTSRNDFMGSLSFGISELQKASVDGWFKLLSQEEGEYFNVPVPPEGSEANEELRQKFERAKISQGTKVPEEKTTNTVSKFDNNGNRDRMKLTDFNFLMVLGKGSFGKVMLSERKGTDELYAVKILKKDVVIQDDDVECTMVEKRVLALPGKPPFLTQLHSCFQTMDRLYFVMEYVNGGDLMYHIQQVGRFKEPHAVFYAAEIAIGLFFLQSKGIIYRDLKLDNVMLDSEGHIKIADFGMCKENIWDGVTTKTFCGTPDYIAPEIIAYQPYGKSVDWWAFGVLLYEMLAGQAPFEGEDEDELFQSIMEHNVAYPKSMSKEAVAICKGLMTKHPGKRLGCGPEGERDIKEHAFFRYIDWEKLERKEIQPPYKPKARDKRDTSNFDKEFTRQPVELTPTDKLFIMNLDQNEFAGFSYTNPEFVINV
Procedure: as §1

PKCeta = molecular target: T3, PKCeta (Homo sapiens, UniProt P24723); experiment: Kinase selectivity profile assay; format: biochemical; settings: 500 nM; relative to DMSO; read-out: Residual enzymatic activity
T3 construct: purchased Reaction Biology Corporation
T3 sequence (P24723 whole entry): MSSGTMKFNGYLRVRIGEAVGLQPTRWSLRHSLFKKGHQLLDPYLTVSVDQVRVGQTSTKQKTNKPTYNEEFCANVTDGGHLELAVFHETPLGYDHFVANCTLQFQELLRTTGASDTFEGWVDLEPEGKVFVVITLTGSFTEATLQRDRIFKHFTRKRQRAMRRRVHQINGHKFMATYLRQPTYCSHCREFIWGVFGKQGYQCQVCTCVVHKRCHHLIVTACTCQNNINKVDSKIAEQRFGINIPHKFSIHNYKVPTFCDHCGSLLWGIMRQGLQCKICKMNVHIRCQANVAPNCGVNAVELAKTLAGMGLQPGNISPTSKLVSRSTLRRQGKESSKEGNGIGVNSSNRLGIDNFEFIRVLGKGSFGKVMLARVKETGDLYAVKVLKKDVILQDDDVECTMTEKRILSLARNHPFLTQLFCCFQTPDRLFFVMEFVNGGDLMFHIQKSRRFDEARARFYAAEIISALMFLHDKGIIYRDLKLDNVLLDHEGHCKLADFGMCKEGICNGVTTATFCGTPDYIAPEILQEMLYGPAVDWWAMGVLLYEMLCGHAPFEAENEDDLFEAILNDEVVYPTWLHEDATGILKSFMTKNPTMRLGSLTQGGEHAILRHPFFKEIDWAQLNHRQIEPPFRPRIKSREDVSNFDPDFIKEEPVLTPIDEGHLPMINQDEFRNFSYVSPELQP
Procedure: as §1

c-Src = molecular target: T4, c-Src (Homo sapiens, UniProt P12931); experiment: cSrc inhibition and kinase selectivity profile assay; format: biochemical; settings: 500 nM; relative to DMSO; read-out: Residual enzymatic activity
T4 construct: purchased Reaction Biology Corporation (assay service)
T4 sequence (P12931 whole entry): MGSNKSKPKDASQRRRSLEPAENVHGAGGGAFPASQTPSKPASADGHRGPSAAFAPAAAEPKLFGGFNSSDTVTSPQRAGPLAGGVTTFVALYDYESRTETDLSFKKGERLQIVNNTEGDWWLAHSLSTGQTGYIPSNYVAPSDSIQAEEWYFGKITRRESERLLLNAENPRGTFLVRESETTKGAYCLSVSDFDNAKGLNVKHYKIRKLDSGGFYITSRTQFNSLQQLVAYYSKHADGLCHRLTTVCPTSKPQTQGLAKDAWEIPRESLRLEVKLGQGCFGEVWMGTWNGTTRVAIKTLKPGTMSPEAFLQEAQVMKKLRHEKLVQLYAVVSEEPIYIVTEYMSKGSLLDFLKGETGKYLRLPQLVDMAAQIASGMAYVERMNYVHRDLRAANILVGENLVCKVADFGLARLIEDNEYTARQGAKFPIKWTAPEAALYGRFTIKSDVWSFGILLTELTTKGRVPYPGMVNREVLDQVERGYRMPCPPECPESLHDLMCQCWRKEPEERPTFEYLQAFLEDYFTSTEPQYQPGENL
Procedure: as §1

DYRK4 = molecular target: T5, DYRK4 (Homo sapiens, UniProt Q9NR20); experiment: Kinase selectivity profile assay; format: biochemical; settings: 500 nM; relative to DMSO; read-out: Residual enzymatic activity
T5 construct: purchased Reaction Biology Corporation
T5 sequence (Q9NR20 whole entry): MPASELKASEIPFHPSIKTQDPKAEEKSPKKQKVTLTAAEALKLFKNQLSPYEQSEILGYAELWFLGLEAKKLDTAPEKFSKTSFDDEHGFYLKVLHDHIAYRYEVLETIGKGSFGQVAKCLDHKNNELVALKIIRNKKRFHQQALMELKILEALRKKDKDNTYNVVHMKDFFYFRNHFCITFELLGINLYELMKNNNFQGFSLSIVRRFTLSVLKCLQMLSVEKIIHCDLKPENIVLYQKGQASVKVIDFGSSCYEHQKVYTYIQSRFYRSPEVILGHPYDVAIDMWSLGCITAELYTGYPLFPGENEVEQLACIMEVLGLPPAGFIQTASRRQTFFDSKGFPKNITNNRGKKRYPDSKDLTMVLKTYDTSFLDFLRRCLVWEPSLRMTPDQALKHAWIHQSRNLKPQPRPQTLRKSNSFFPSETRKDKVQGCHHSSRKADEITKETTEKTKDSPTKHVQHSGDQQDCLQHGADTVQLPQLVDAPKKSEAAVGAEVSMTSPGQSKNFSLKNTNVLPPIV
Procedure: The activity of MT-SYK-03 against cSrc kinase and selectivity profile towards other 341 kinases was determined at Reaction Biology Corporation (Malvern, PA, USA) using the standard kinase assay protocol. […] Kinase activity data was expressed as the percent remaining kinase activity in test samples compared to vehicle (dimethyl sulfoxide) reactions based on the radioactivity of reaction products (see Table S2). Experiment was replicated twice.

341 kinases = experiment: Kinase selectivity profile, whole panel; format: biochemical, human; settings: 500 nM
Procedure: as §1

Lewis rats, CIA model = experiment: Collagen-induced semi-established arthritis model in rats; format: in vivo, rat
Procedure: Rat CIA model was performed was performed at Pharmenterprises, Russia and approved by Ethics Committee of Pharmenterprises. Female Lewis rats with body weight of 164–183 g (Charles River Laboratories, Inc., Wilmington, MA) were injected with porcine type II collagen (Chondrex) emulsified with Freund’s Incomplete Adjuvant (Sigma Aldrich) at two sites at the base of the tail according to standard protocol. On day 7, the rats were boosted with a second subcutaneous injection. On day 6 of the study, rats were randomized by body weight into six groups: a control group of four, and five treatment groups of eight. […] Disease progression was monitored via daily ankle thickness measurements. At study termination on day 16 rats were anesthetized with Isoflurane, bled by vacutainer through the descending aorta to exsanguinate and then euthanized for tissue collection. Hind paws were transected at the level of the medial and lateral malleolus, weighed, and collected for microscopy.
[…]

mongrel rats, AIA model = experiment: Adjuvant-induced arthritis in rats; format: in vivo
Procedure: Rat adjuvant-induced arthritis (AIA) model was performed at Pharmenterprises, Russia as described previously^3 and approved by Ethics Committee of Pharmenterprises. Male 10 week old mongrel rats were divided into eleven groups: negative control (#1), positive control (#2) and nine treatment groups (#3–11), ten […] in each group. Group #1 was left intact, while subplantar injection of 0.1 mL of Complete Freund’s adjuvant (CFA, Sigma) was made on day 0 at right paws of rats in groups […]. […] Disease progression was monitored by measuring volumes of the right (involved) and left (non-involved) paws on days 0, 14, 18, 21, 25, and 28.

[1] = ankle, day 16, MTX 0.075 mg/kg PO QD + test article vehicle PO BID, group mean
[2] = ankle, day 16, MTX 0.075 mg/kg PO QD + test article vehicle PO BID, individual joint (animal, R/L)
[3] = ankle, day 16, MTX 0.075 mg/kg PO QD + test article vehicle PO BID, vs vehicle
[4] = knee, day 16, MTX 0.075 mg/kg PO QD + test article vehicle PO BID, group mean
[5] = knee, day 16, MTX 0.075 mg/kg PO QD + test article vehicle PO BID, individual joint (animal, R/L)
[6] = knee, day 16, MTX 0.075 mg/kg PO QD + test article vehicle PO BID, vs vehicle

T1 sequence (P15735 whole entry): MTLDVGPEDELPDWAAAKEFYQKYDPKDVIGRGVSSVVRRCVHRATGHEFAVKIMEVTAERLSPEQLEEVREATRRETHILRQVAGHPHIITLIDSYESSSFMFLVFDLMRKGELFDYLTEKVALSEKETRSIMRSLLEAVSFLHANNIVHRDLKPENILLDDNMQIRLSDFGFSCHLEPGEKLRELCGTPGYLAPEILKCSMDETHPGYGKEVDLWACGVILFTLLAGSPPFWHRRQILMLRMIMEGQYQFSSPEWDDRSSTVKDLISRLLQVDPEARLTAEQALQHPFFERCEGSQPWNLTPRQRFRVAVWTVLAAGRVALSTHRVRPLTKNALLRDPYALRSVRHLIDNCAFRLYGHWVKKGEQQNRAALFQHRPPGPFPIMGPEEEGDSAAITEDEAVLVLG

SMILES: COc1cc(Nc2ncc(F)c(Nc3ccc4c(n3)NC(=O)C(C)(C)O4)n2)cc(OC)c1OC [R406, reference compound]
- remaining activity at 0.5 µM (PHKg2): 93.4%
- remaining activity at 0.5 µM (PKCb1): 63%
- remaining activity at 0.5 µM (PKCeta): 96.6%
- remaining activity at 0.5 µM (c-Src): 6.8%
- remaining activity at 0.5 µM (DYRK4): 77.1%
- Number of kinases inhibited by more than 50% (341 kinases): 104 kinases
- Number of kinases inhibited by more than 80% (341 kinases): 50 kinases
- Number of kinases inhibited by more than 90% (341 kinases): 26 kinases

SMILES: CN(Cc1cnc2nc(N)nc(N)c2n1)c1ccc(C(=O)N[C@@H](CCC(=O)O)C(=O)O)cc1 [MTX, methotrexate, reference compound]
- Bone Resorption score, Mean (Lewis rats, CIA model; [1]): 1.19
- Cartilage Damage score, Mean (Lewis rats, CIA model; [1]): 2.00
- Inflammation score, Mean (Lewis rats, CIA model; [1]): 3.88
- Pannus score, Mean (Lewis rats, CIA model; [1]): 1.19
- Periosteal Bone Formation score, Mean (Lewis rats, CIA model; [1]): 0.63
- Periosteal Naïve Bone Width Actual, Mean (Lewis rats, CIA model; [1]): 126.00 μm
- Summed Histopathology Scores, Mean (Lewis rats, CIA model; [1]): 8.88
- Bone Resorption score (0=normal to 5=severe) (Lewis rats, CIA model; [2]): 2 and 0 and 1 and 0.5
- Cartilage Damage score (0=normal to 5=severe) (Lewis rats, CIA model; [2]): 3 and 0.5 and 2
- Inflammation score (0=normal to 5=severe) (Lewis rats, CIA model; [2]): 5 and 1 and 4 and 3 and 2
- Pannus score (0=normal to 5=severe) (Lewis rats, CIA model; [2]): 2 and 0 and 1 and 0.5
- Periosteal Bone Formation score (0=normal to 5=severe) (Lewis rats, CIA model; [2]): 1 and 0 and 0.5
- Periosteal Naïve Bone Width 16x Measure (Lewis rats, CIA model; [2]): 3 and 4 and 0 and 2 and 1
- Periosteal Naïve Bone Width Actual (Lewis rats, CIA model; [2]): 189 μm and 252 μm and 0 μm and 126 μm and 63 μm
- Summed Histopathology Scores (Lewis rats, CIA model; [2]): 13 and 1.5 and 9.5 and 8.5 and 6.5 and 12 and 4
- Periosteal Naïve Bone Width, ANOVA to Vehicle (Lewis rats, CIA model; ankle, day 16, MTX 0.075 mg/kg PO QD + test article vehicle PO BID, p value): p < 0.05
- Bone Resorption score, % inhibition (Lewis rats, CIA model; [3]): 19%
- Cartilage Damage score, % inhibition (Lewis rats, CIA model; [3]): 17%
- Inflammation score, % inhibition (Lewis rats, CIA model; [3]): 14%
- Pannus score, % inhibition (Lewis rats, CIA model; [3]): 19%
- Periosteal Bone Formation score, % inhibition (Lewis rats, CIA model; [3]): 51%
- Periosteal Naïve Bone Width, % inhibition (Lewis rats, CIA model; [3]): 44%
- Summed Histopathology Scores, % inhibition (Lewis rats, CIA model; [3]): 20%
- Bone Resorption score, Mean (Lewis rats, CIA model; [4]): 0.28
- Cartilage Damage score, Mean (Lewis rats, CIA model; [4]): 0.66
- Inflammation score, Mean (Lewis rats, CIA model; [4]): 2.03
- Pannus score, Mean (Lewis rats, CIA model; [4]): 0.44
- Summed Histopathology Scores, Mean (Lewis rats, CIA model; [4]): 3.41
- Bone Resorption score (0=normal to 5=severe) (Lewis rats, CIA model; [5]): 0.5 and 0 and 1
- Cartilage Damage score (0=normal to 5=severe) (Lewis rats, CIA model; [5]): 1 and 0.5 and 0 and 2
- Inflammation score (0=normal to 5=severe) (Lewis rats, CIA model; [5]): 3 and 0.5 and 1 and 0 and 5 and 4 and 2
- Pannus score (0=normal to 5=severe) (Lewis rats, CIA model; [5]): 0.5 and 0 and 1
- Summed Histopathology Scores (Lewis rats, CIA model; [5]): 5 and 4.5 and 0.5 and 2 and 1 and 0 and 9 and 6 and 5.5 and 3
- Bone Resorption score, % inhibition (Lewis rats, CIA model; [6]): 61%
- Cartilage Damage score, % inhibition (Lewis rats, CIA model; [6]): 50%
- Inflammation score, % inhibition (Lewis rats, CIA model; [6]): 36%
- Pannus score, % inhibition (Lewis rats, CIA model; [6]): 42%
- Summed Histopathology Scores, % inhibition (Lewis rats, CIA model; [6]): 43%
- Decrease of periosteal bone width in knee joints (Lewis rats, CIA model; rat CIA, MTX 0.075 mg/kg PO QD): ~ 43%
- Histopathology scores for cartilage damage and bone resorption, ankles and knees (Lewis rats, CIA model; rat CIA, day 16): did not show statistical significance for any parameter
- Animal death (mongrel rats, AIA model; Methotrexate 0.2 mg/kg QD intragastric, 14 days): 0%
- Animal death (mongrel rats, AIA model; Methotrexate 0.2 mg/kg QD intragastric, 18 days): 0%
- Animal death (mongrel rats, AIA model; Methotrexate 0.2 mg/kg QD intragastric, 21 days): 0%
- Animal death (mongrel rats, AIA model; Methotrexate 0.2 mg/kg QD intragastric, 25 days): 10%
- Animal death (mongrel rats, AIA model; Methotrexate 0.2 mg/kg QD intragastric, 28 days): 20%
- Animal death (mongrel rats, AIA model; Methotrexate 0.5 mg/kg QD intragastric, 14 days): 0%
- Animal death (mongrel rats, AIA model; Methotrexate 0.5 mg/kg QD intragastric, 18 days): 0%
- Animal death (mongrel rats, AIA model; Methotrexate 0.5 mg/kg QD intragastric, 21 days): 0%
- Animal death (mongrel rats, AIA model; Methotrexate 0.5 mg/kg QD intragastric, 25 days): 20%
- Animal death (mongrel rats, AIA model; Methotrexate 0.5 mg/kg QD intragastric, 28 days): 70%
- Rats died (mongrel rats, AIA model; rat AIA, MTX 0.2 mg/kg): 20%
- Rats died (mongrel rats, AIA model; rat AIA, MTX 0.5 mg/kg): 70%
- Volume of treated (CFA-injected) paws (mongrel rats, AIA model; rat AIA, day 28): statistically significant reductions of paw volume
- Volume of non-involved paws (mongrel rats, AIA model; rat AIA, high-dose MTX, day 28): decreased the volume of non-involved paws
- Volume of non-involved paws (mongrel rats, AIA model; rat AIA, low-dose MTX, day 28): no statistically significant effect

From PMC8632988, “Inhibition of SYK and cSrc kinases can protect bone and cartilage in preclinical models of osteoarthritis and rheumatoid arthritis” (Scientific Reports, 2021)
